Data as given in ChEMBL document CHEMBL4837181 (Eur J Med Chem, 2020).
Each block holds one compound with its values, some of them ahead of it.

Assays:
[1] = Average plasma concentration at steady state in mouse at 250 mg/kg administered bid; format: ADME, organism-based; conditions: in vivo
[2] = Cmax in mouse at 250 mg/kg administered bid; format: ADME, organism-based; design: dose 250 mg/kg; conditions: in vivo
[3] = AUC (0 to 12 hrs) in human up to 1200 mg administered bid; format: ADME; design: time < 12 hr, dose <=1200
[4] = Cmax in human at 2400 mg administered bid; format: ADME; design: dose 2400 mg; conditions: in vivo
[5] = Solubility of compound at pH 7.4; format: physicochemical; conditions: buffer
[6] = Tmax in male cynomolgus monkey at 75 mg/kg, po measured on day 1; format: ADME, organism-based, Macaca fascicularis; conditions: in vivo
[7] = Tmax in female cynomolgus monkey at 225 mg/kg, po measured on day 1; format: ADME, organism-based, Macaca fascicularis; conditions: in vivo
[8] = AUC (0 to 24 hrs) in male cynomolgus monkey at 75 mg/kg, po measured on day 1; format: ADME, organism-based, Macaca fascicularis; design: time < 24 hr, route oral, dose 75 mg/kg; conditions: in vivo
[9] = Apparent oral clearance in male cynomolgus monkey at 150 mg/kg, po BID measured on day 8; format: ADME, organism-based, Macaca fascicularis; conditions: in vivo
[10] = AUC (0 to 24 hrs) in female cynomolgus monkey at 225 mg/kg, po measured on day 1; format: ADME, organism-based, Macaca fascicularis; design: time < 24 hr, route oral, dose 225 mg/kg; conditions: in vivo
[11] = Half life in rat at 20 to 900 mg/kg, po; format: ADME, organism-based; conditions: in vivo, dose 20-900 mg/kg
[12] = Stimulation of proliferation of CD8 positive T cells (unknown origin); format: functional, tissue-based; conditions: CD8-positive T cell
[13] = Chemical stability of compound in 0.1 N aqueous HCl buffer assessed as compound remaining at pH 1 at 5 uM measured after 24 hrs by LC-MS/MS analysis; format: physicochemical; conditions: pH 1, 24 h
[14] = Chemical stability of compound in PBS buffer assessed as compound remaining at pH 7.4 at 5 uM measured after 24 hrs by LC-MS/MS analysis; format: physicochemical; conditions: read-out: Stabilty
[15] = Chemical stability of compound in simulated gastric fluid assessed as compound remaining at 5 uM measured after 24 hrs by LC-MS/MS analysis; format: ADME, physicochemical; conditions: read-out: Stabilty
[16] = Chemical stability of compound in simulated intestinal fluid assessed as compound remaining at 5 uM measured after 3 hrs by LC-MS/MS analysis; format: ADME, physicochemical; conditions: read-out: Stabilty
[17] = Stability in human plasma assessed as parent compound remaining measured after 24 hrs by LC-MS/MS analysis; format: ADME, cell-free; conditions: read-out: Stabilty
[18] = Lipophilicity, logP of the compound; format: physicochemical; conditions: octanol/water
[19] = Dissociation constant, pKa of the compound; format: physicochemical
[20] = Drug metabolism in Sprague-Dawley rat hepatocytes assessed as unmetabolized compound at 10 uM incubated for 120 mins by UPLC-QTOF-PDA analysis; format: ADME, cell-based, Hepatocyte; conditions: read-out: Drug metabolism
Cytochrome P450 3A4 = Cytochrome P450 3A4 (Homo sapiens, UniProt P08684); test: Direct inhibition of CYP3A4 in human hepatocytes; format: ADME, cell-based, Hepatocyte
Cytochrome P450 3A4, sequence (P08684 whole entry): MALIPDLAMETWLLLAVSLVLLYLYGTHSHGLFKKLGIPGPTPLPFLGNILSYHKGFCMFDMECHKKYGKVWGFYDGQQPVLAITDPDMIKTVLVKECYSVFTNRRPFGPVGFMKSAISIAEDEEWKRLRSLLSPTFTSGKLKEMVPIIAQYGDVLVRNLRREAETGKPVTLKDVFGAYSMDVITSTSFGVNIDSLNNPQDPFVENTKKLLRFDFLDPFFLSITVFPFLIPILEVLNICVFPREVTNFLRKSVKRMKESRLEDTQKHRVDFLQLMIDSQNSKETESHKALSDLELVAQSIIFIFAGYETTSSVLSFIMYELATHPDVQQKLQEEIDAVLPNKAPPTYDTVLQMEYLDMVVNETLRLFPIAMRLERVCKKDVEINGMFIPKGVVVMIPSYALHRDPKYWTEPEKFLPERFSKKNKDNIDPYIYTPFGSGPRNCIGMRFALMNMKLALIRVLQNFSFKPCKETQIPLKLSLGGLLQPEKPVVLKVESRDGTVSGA

Cytochrome P450 2D6 = Cytochrome P450 2D6 (Homo sapiens, UniProt P10635); test: Inhibition of CYP2D6 in human hepatocytes; format: ADME, cell-based, Hepatocyte
Cytochrome P450 2D6, sequence (P10635 whole entry): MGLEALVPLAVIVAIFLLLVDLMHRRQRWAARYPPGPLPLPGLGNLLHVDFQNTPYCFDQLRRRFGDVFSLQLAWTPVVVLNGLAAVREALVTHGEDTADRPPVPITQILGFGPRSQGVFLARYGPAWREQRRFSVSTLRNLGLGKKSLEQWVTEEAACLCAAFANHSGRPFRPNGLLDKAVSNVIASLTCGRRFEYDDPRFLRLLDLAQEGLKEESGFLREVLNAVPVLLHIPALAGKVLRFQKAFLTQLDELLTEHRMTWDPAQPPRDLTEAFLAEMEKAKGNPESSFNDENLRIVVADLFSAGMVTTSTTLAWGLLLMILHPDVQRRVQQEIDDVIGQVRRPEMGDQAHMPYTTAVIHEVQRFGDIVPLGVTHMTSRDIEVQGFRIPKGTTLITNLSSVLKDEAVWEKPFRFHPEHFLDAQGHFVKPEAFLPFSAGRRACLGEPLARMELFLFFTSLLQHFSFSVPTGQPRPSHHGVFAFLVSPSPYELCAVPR

Cytochrome P450 1A2 [21] = molecular target: T1, Cytochrome P450 1A2 (Homo sapiens, UniProt P05177); test: Inhibition of CYP1A2 in human hepatocytes; format: ADME, cell-based, Hepatocyte
T1 sequence (P05177 whole entry): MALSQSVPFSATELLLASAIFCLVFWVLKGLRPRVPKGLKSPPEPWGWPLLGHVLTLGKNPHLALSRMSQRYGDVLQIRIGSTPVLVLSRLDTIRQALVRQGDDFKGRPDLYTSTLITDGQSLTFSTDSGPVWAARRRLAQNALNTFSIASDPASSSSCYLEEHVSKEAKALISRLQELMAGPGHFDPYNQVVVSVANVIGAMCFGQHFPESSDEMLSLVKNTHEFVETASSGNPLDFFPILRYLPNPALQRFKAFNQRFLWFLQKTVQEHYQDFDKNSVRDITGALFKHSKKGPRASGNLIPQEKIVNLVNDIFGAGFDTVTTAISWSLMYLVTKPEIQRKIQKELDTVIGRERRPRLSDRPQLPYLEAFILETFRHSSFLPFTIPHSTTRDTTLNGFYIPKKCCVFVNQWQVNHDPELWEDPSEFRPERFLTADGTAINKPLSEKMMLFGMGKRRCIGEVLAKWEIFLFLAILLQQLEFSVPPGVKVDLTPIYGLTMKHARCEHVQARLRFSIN

Cytochrome P450 1A2 [22] = molecular target: T1, Cytochrome P450 1A2; test: Induction of CYP1A2 in human hepatocytes; format: ADME, cell-based, Hepatocyte
[23] = Inhibition of P-gp transporter activity in MDR1-MDCK2 cells; format: cell-based, Canis lupus familiaris; conditions: mdckii-mdr1
OAT3 = OAT3 (Homo sapiens, UniProt Q8TCC7); test: Inhibition of OAT3 (unknown origin) expressed in HEK293 cells; format: cell-based
OAT3, sequence (Q8TCC7 whole entry, looked up): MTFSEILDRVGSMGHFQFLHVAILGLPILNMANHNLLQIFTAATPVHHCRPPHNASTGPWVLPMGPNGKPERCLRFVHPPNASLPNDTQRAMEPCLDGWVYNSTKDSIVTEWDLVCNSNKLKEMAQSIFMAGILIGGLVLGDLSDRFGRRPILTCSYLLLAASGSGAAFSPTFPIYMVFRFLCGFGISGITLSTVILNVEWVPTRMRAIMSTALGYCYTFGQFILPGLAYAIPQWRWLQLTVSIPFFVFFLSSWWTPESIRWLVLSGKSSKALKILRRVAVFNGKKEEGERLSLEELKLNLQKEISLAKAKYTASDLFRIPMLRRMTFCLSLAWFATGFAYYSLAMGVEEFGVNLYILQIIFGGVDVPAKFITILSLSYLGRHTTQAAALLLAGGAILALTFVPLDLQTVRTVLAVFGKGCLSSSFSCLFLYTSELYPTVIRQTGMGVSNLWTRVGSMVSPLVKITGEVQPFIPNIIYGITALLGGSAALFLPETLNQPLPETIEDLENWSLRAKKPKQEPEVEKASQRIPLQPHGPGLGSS

[24] = AUC (0 to 24 hrs) in male cynomolgus monkey at 75 mg/kg, po BID measured on day 8; format: ADME, organism-based, Macaca fascicularis; design: time < 24 hr, route oral, dose 75 mg/kg; conditions: in vivo
[25] = Drug metabolism in cynomolgus monkey assessed as formation of M9 metabolite at 75 to 675 mg/kg, po administered as single dose; format: ADME, organism-based, Macaca fascicularis; conditions: in vivo, dose 75-675 mg/kg
[26] = Drug metabolism in mouse assessed as indoximod formation by measuring indoximod Tmax at 20 to 900 mg/kg; format: ADME, organism-based; conditions: in vivo, dose 20-900 mg/kg
[27] = Drug metabolism in cynomolgus monkey assessed as ratio of indoximod to parent compound at 75 to 675 mg/kg, po administered as single dose; format: ADME, organism-based, Macaca fascicularis; conditions: in vivo, dose 75-675 mg/kg
[28] = Drug metabolism in cynomolgus monkey assessed as ratio of indoximod to parent compound at 75 to 375 mg/kg, po BID administered […]; format: ADME, organism-based, Macaca fascicularis; conditions: in vivo, dose 75-375 mg/kg
[29] = AUC (0 to 12 hrs) in male rat at 150 mg/kg, po BID measured on day 28; format: ADME, organism-based; design: time < 12 hr, route oral, dose 150 mg/kg; conditions: in vivo
[30] = Oral bioavailability in male cynomolgus monkey at 825 micromol/kg; format: ADME, organism-based, Macaca fascicularis; conditions: in vivo, at 825 µmol/kg
[31] = Toxicity in rat assessed as labored breathing at 150 to 180 mg/kg, po; format: organism-based; conditions: in vivo, dose 150-180 mg/kg
[32] = Toxicity in rat assessed as decreased food assumption at 150 to 180 mg/kg, po; format: organism-based; conditions: in vivo, dose 150-180 mg/kg
[33] = Toxicity in monkey assessed as change in cardiovascular parameter; design: species or system Macaca mulatta; conditions: rhesus monkey, in vivo

Cave [1]: 29 µM
Cmax [2]: 50 µM
AUC at 12 h [3]: 83 µM·h
Cmax [4]: 22 µM
solubility [5]: < 2000 µg/mL
Tmax [6]: 2 h
Tmax [7]: 1 h
AUC(0-t) at 24 h [8]: 223 µM·h
CL/F [9]: 13.8 mL/min/kg
AUC(0-t) at 24 h [10]: 181 µM·h
half-life [11]: 23 h
SMILES: Cn1cc(C[C@@H](N)C(=O)O)c2ccccc21 [INDOXIMOD]
EC50 [12]: ≥ 30 µM

SMILES: CCOC(=O)[C@@H](Cc1cn(C)c2ccccc12)NC(=O)[C@@H](N)CC(C)C.Cl
Stabilty [13]: 87%
remaining at 24 h, 5 µM [14]: 48%
remaining at 24 h, 5 µM [15]: 88%
remaining at 3 h, 5 µM [16]: 91%
remaining at 24 h [17]: 6%
logP [18]: 2.6
pKa [19]: 7.76
remaining at 2 h, 10 µM [20]: 0.4%
IC50 (Cytochrome P450 3A4): 5 µM
IC50 (Cytochrome P450 2D6): 19 µM
IC50 (Cytochrome P450 1A2 [21]): > 50 µM
Activity (Cytochrome P450 1A2 [22]): Not Active
IC50 [23]: 27 µM
IC50 (OAT3): > 50 µM
AUC at 24 h [24]: 177 µM·h
Drug metabolism [25]: Metabolite_Detected
Tmax [26]: 1 h
Ratio [27]: 690
Ratio [28]: 690
AUC at 12 h [29]: 1410 µM·h
F [30]: 6%
Activity [31]: Toxic
Activity [32]: Toxic
Activity [33]: Non-Toxic
